The record followed here is BindingDB's records for doi:10.1021/jm950543x (University of Caen Normandy, 1996).

The nature of the test: Binding affinity for 5-hydroxytryptamine 2C receptor.

Take `CN1CCN(c2nc3sccc3n3cccc23)CC1`: the IC50 was 355 nM.
